From article PMC3926938 (Nature structural & molecular biology, 2012) come the findings set out here.

Square brackets hold non-standard residues; d marks the D form. Ends that are not written are not given here. Lys(Me3) = C[N+](C)(C)CCCC[C@H](N)C(=O)O

One assay concerns the target human PHF19-Tudor (Homo sapiens, UniProt Q5T6S3). In words: NMR chemical shift titration of Phf19-Tudor with histone H3 peptides. It counts as binding. Particulars: for Kd increased by a factor (alanine mutant peptide vs wild-type peptide): NMR, point mutations in histone H3 amino acids 37–41.
In assay [1] the target is human PHF19-Tudor (residues 37–95) (human) (UniProt Q5T6S3). In words: NMR titration.
Assay [2] concerns the target human PHF19-Tudor (residues 37–95) (human, UniProt Q5T6S3 37-95). In words: NMR titration.

With 34-GV-Kme3-KPHRA-41 [H3 Y41A], the “Kd increased by a factor (alanine mutant peptide vs wild-type peptide)” value (shortened to “Kd increased by a factor”) on human PHF19-Tudor is listed as 1.6.
In turn, H3K36me2-containing peptide (NMR) showed a Kd in assay [1] of 295 µM.
Still for that read-out and setting: the result for “11-mer H3K36me3 peptide (31-ATGGVKme3KPHRY-41)” reads 29 µM.
In the case of 31-ATGGV-Kme3-K-37 [H3_31–36], the “binding to Phf19-Tudor (in words)” value at human PHF19-Tudor (NMR titration) is “unable to bind”.
In the case of 34GV-Kme3-KPHAY-41 [H3 R10A], at human PHF19-Tudor, the “Kd increased by a factor” value is “did not increase”.
Consider 34-GV-Kme3-APHRY-41 [H3 K37A], for which, at human PHF19-Tudor, the “Kd increased by a factor” value turned out to be 2.1.
In assay [2], GV[Lys(Me3)]KPHRY [short H3K36me3 peptide (34-GV-Kme3-KPHRY-41; called the 7-mer histone H3_(35–41) in the results)] came in with a Kd of 44 µM.
